# Results as given in PMC10641236, “Influenza A virus replication has a stronger dependency on Raf/MEK/ERK signaling pathway activity than SARS-CoV-2” (Frontiers in Cellular and Infection Microbiology, 2023).
# Read-outs that look alike come from different tables or passages of the source.
# How the values were obtained:
# IAV PR8 NP = format: cell-based; conditions: MOI 0.01, 24 h; for reduction of IAV PR8 NP (NP/ERK2 normalized to solvent control): both cell lines
# SARS-CoV-2 N = format: cell-based; conditions: MOI 0.01, 24 h; for reduction of SARS-CoV-2 N (N/ERK2 normalized to solvent control): both cell lines
# IAV PR8 = format: cell-based; conditions: 100 µM, Caco-2 cells, MOI 4, 10 h
# [1] = human, in vivo; cited from earlier work
# SARS-CoV-2 = assay: Virus yield reduction assay, SARS-CoV-2 (virus titer by RT-qPCR); format: cell-based; conditions: for reduction of virus titer compared to solvent control: 5% FBS; for reduction of virus titer compared to solvent control / reduction of the virus titer: 24 h; for reduction of the virus titer: Calu-3 and Caco-2 cells
# Method: Calu-3 and Caco-2 cells were seeded in 24-well plates (Greiner Bio-One GmbH, Frickenhausen, Germany) and grown to 90% confluence. The cells were washed once with infection medium [IMDM supplemented with 0.2% bovine serum albumin (BSA) (Carl Roth GmbH + Co. KG, Karlsruhe, Germany) and 1% penicillin–streptomycin] prior to infection with a multiplicity of infection (MOI) of 0.01 of IAV PR8 or SARS-CoV-2 for 1 h in 200 µL of infection medium per well. Afterwards, the virus inoculum was removed completely, and the cells were washed once with infection medium and then treated with 1 mL per well of different concentrations of zapnometinib in infection medium with 1% dimethyl sulfoxide (DMSO) (Merck Millipore, Burlington, MA, USA) for 24 h at 37°C, 5% CO2. Supernatants were harvested and stored at −80°C for subsequent determination of virus titer and EC50 value. Cell lysates were prepared as described in the “Preparation of cell lysates and WES™ analysis” section for WES™ analysis.
# The viral titers of IAV and SARS-CoV-2 viruses were determined using a real-time one-step multiplex RT-qPCR method. Briefly, viral nucleic acid extraction was performed using a QIAamp Viral RNA Mini Kit (Qiagen, Venlo, Netherlands) according to the manufacturer’s instructions. A TaqMan-based RT-qPCR assay was carried out using a QuantiNova Pathogen kit (Qiagen, Venlo, Netherlands) with specific primers targeting the SARS-CoV-2 N gene (2019-CoV2-N1F: […], 2019-CoV2-N1R: […], 2019-CoV2-N1P [6FAM]: […] [BHQ1]) and M gene for IAV according to the WHO guidelines. The viral genome copies per mL (gc/mL) were determined based on a standard curve prepared with 10-fold serial dilutions of the target gene. For quality control, nuclease-free water was included in each set of extractions as a negative control to monitor any possible cross-contamination. Moreover, an artificial exogenous QuantiNova RNA internal control (Qiagen, Venlo, Netherlands) was included during the nucleic acid purification to monitor the RNA purification efficiency and the RT-PCR amplification. A Rotor-Gene Q™ Real-Time PCR detection system (Qiagen, Venlo, Netherlands) was used for amplification, and the data were analyzed using Q-Rex software (Qiagen, Venlo, Netherlands).
# For EC50 determination, a virus yield reduction assay was performed. The virus titer in the cell culture supernatant was determined and normalized to the solvent control. The EC50 value was determined using the “log(inhibitor) vs. normalized response - Variable slope” equation in GraphPad Prism version 9.4.0.
# COVID-19 = conditions: hospitalized COVID-19 patients; ref ClinicalTrials.gov NCT04776044; cited from earlier work
# IAV Fukui = system: IAV Fukui; parameters: method as in Laure et al., 2020; conditions: medium containing 0.2% BSA, ref Laure et al., 2020; cited from earlier work
smiles,measurement,setting,value
"O=C(O)c1ccc(F)c(F)c1Nc1ccc(I)cc1Cl [zapnometinib, 2-(2-chloro-4-iodophenylamino)-N-3,4-difluoro benzoic acid]",reduction of IAV PR8 NP (NP/ERK2 normalized to solvent control),IAV PR8 NP; 12.5 µM,approximately 50%
same,reduction of IAV PR8 NP (NP/ERK2 normalized to solvent control),IAV PR8 NP; 50 µM,> 70%
same,reduction of IAV PR8 NP (NP/ERK2 normalized to solvent control),IAV PR8 NP; 100 µM,> 80%
same,lowest concentration at which IAV PR8 NP was significantly reduced compared to solvent control,IAV PR8 NP,0.39 µM
same,reduction of SARS-CoV-2 N (N/ERK2 normalized to solvent control),SARS-CoV-2 N; 12.5 µM,approximately 50%
same,reduction of SARS-CoV-2 N (N/ERK2 normalized to solvent control),SARS-CoV-2 N; 50 µM,> 70%
same,reduction of SARS-CoV-2 N (N/ERK2 normalized to solvent control),SARS-CoV-2 N; 100 µM,> 80%
same,lowest concentration at which SARS-CoV-2 N was significantly reduced compared to solvent control,SARS-CoV-2 N,12.5 µM
same,Infected cells (IAV PR8 NP positive) normalized to solvent control,IAV PR8,44.9%
same,localization of the IAV NP,IAV PR8,retention of the IAV NP in the nucleus
same,tolerability in phase I clinical trial,[1],well tolerated
same,reduction of virus titer compared to solvent control,"SARS-CoV-2; 6.25 µM, Caco-2 cells",No significant reduction
same,reduction of virus titer compared to solvent control,"SARS-CoV-2; 12.5 µM, Caco-2 cells",No significant reduction
same,reduction of virus titer compared to solvent control,"SARS-CoV-2; 25 µM, Caco-2 cells",> 39%
same,reduction of the virus titer,"SARS-CoV-2; 25 µM, 0.2% BSA",≥ 50%
same,reduction of virus titer compared to solvent control,"SARS-CoV-2; 50 µM, Caco-2 cells",> 60%
same,reduction of the virus titer,"SARS-CoV-2; 50 µM, 0.2% BSA",≥ 50%
same,reduction of virus titer compared to solvent control,"SARS-CoV-2; 75 µM, Caco-2 cells",> 94%
same,reduction of the virus titer,"SARS-CoV-2; 75 µM, 0.2% BSA",> 90%
same,reduction of virus titer compared to solvent control,"SARS-CoV-2; 100 µM, Caco-2 cells",> 99%
same,reduction of the virus titer,"SARS-CoV-2; 100 µM, 0.2% BSA",> 90%
same,EC50,"SARS-CoV-2; Caco-2 cells, 0.2% BSA, MOI 0.01, 24 h, read-out: EC50 value against SARS-CoV-2 (FI)",22.9 µM
same,EC50,"SARS-CoV-2; Severe acute respiratory syndrome coronavirus 2, Caco-2, 24 h, Caco-2 cells, 0.2% BSA, MOI 0.01, 24 h, read-out: EC50 value against SARS-CoV-2 (FI)",22.9 µM
same,EC50,"SARS-CoV-2; Severe acute respiratory syndrome coronavirus 2, Caco-2, Caco-2 cells, medium containing 5% FBS, MOI 0.01, treatment 1 h post-infection, titer after 24 h, read-out: EC50 value against SARS-CoV-2",34.2 µM
same,EC50,"SARS-CoV-2; Severe acute respiratory syndrome coronavirus 2, Calu-3, 24 h, Calu-3 cells, 0.2% BSA, MOI 0.01, 24 h, read-out: EC50 value against SARS-CoV-2 (FI)",19.7 µM
same,EC50,"SARS-CoV-2; Severe acute respiratory syndrome coronavirus 2, summary for Calu-3 and Caco-2 cells, 0.2% BSA, read-out: EC50 values for SARS-CoV-2 in both cell lines",~20 µM
same,"efficacy in terms of the primary endpoint, phase II clinical trial",COVID-19,clinically relevant efficacy profile
same,"safety profile, phase II clinical trial",COVID-19,favorable safety profile
same,EC50,IAV Fukui,4.5 µM
